From patent publication EP0048613B1, “4-0-Substituted -2-deoxystreptamine aminoglycoside derivatives, their preparation and formulations containing them” (ELI LILLY AND COMPANY, priority 1980, dated 1982)
Converted amounts (≈) assume the structure as drawn. Like-named read-outs stand apart in the source and are kept apart here.

Legend:
[1] = test system: Bordetella bronchiseptica 16; assay: MIC, standard agar dilution test; type: cell-based; conditions: read-out: Minimum inhibitory concentration
Description: (§1) The antibacterial activity of the deprotected compounds of this invention is illustrated by the following in vitro and in vivo test data obtained with representative compounds. In Table I, the minimum inhibitory concentration (MIC) for representative compounds against a wide range of gram-positive and gram-negative bacteria is presented. The MIC values were obtained by the standard agar dilution test.

[2] = test system: Citrobacter freundii CF17; assay: MIC, standard agar dilution test; type: cell-based; conditions: read-out: Minimum inhibitory concentration
Description: as §1

[3] = test system: Enterobacter aerogenes C32; assay: MIC, standard agar dilution test; type: cell-based; conditions: Klebsiella aerogenes, read-out: Minimum inhibitory concentration
Description: as §1

[4] = test system: Enterobacter aerogenes EB17; assay: MIC, standard agar dilution test; type: cell-based; conditions: Klebsiella aerogenes, read-out: Minimum inhibitory concentration
Description: as §1

[5] = test system: Enterobacter aerogenes X68; assay: MIC, standard agar dilution test; type: cell-based; conditions: Klebsiella aerogenes, read-out: Minimum inhibitory concentration
Description: as §1

[6] = test system: Enterobacter cloacae 265A; assay: MIC, standard agar dilution test; type: cell-based; conditions: read-out: Minimum inhibitory concentration
Description: as §1

Enterobacter cloacae EB5 = assay: MIC, standard agar dilution test; type: cell-based; conditions: read-out: Minimum inhibitory concentration
Description: as §1

Escherichia coli EC14 = assay: MIC, standard agar dilution test; type: cell-based; conditions: read-out: Minimum inhibitory concentration
Description: as §1

Escherichia coli N10 = assay: MIC, standard agar dilution test; type: cell-based; conditions: read-out: Minimum inhibitory concentration
Description: as §1

Escherichia coli TEM = assay: MIC, standard agar dilution test; type: cell-based; conditions: Escherichia coli, read-out: Minimum inhibitory concentration
Description: as §1

Hemophilus influenzae 76 = assay: MIC, standard agar dilution test; type: cell-based; conditions: Haemophilus influenzae, read-out: Minimum inhibitory concentration
Description: as §1

[7] = test system: Hemophilus influenzae C.L.; assay: MIC, standard agar dilution test; type: cell-based; conditions: Haemophilus influenzae, read-out: Minimum inhibitory concentration
Description: as §1

[8] = test system: Klebsiella pneumoniae KAE; assay: MIC, standard agar dilution test; type: cell-based; conditions: read-out: Minimum inhibitory concentration
Description: as §1

[9] = test system: Klebsiella pneumoniae X26; assay: MIC, standard agar dilution test; type: cell-based; conditions: read-out: Minimum inhibitory concentration
Description: as §1

Proteus inconstans PR33 = assay: MIC, standard agar dilution test; type: cell-based; conditions: Providencia alcalifaciens, read-out: Minimum inhibitory concentration
Description: as §1

Proteus morganii PR15 = assay: MIC, standard agar dilution test; type: cell-based; conditions: Morganella morganii, read-out: Minimum inhibitory concentration
Description: as §1

Proteus rettgeri C24 = assay: MIC, standard agar dilution test; type: cell-based; conditions: Providencia rettgeri, read-out: Minimum inhibitory concentration
Description: as §1

Proteus rettgeri PR7 = assay: MIC, standard agar dilution test; type: cell-based; conditions: Providencia rettgeri, read-out: Minimum inhibitory concentration
Description: as §1

[10] = test system: Pseudomonas aeruginosa Ps18; assay: MIC, standard agar dilution test; type: cell-based; conditions: read-out: Minimum inhibitory concentration
Description: as §1

[11] = test system: Pseudomonas aeruginosa X239; assay: MIC, standard agar dilution test; type: cell-based; conditions: read-out: Minimum inhibitory concentration
Description: as §1

[12] = test system: Pseudomonas aeruginosa X528; assay: MIC, standard agar dilution test; type: cell-based; conditions: read-out: Minimum inhibitory concentration
Description: as §1

[13] = test system: Salmonella heidelberg X514; assay: MIC, standard agar dilution test; type: cell-based; conditions: Salmonella enterica, read-out: Minimum inhibitory concentration
Description: as §1

[14] = test system: Salmonella typhimurium 1335; assay: MIC, standard agar dilution test; type: cell-based; conditions: Salmonella enterica, read-out: Minimum inhibitory concentration
Description: as §1

Serratia marcescens SE3 = assay: MIC, standard agar dilution test; type: cell-based; conditions: read-out: Minimum inhibitory concentration
Description: as §1

Serratia marcescens X99 = assay: MIC, standard agar dilution test; type: cell-based; conditions: read-out: Minimum inhibitory concentration
Description: as §1

Shigella sonnei N9 = assay: MIC, standard agar dilution test; type: cell-based; conditions: read-out: Minimum inhibitory concentration
Description: as §1

[15] = test system: Staphylococcus aureus S13E; assay: MIC, standard agar dilution test; type: cell-based; conditions: Staphylococcus aureus, S13E, read-out: Minimum inhibitory concentration
Description: as §1

[16] = test system: Staphylococcus aureus V41; assay: MIC, standard agar dilution test; type: cell-based; conditions: read-out: Minimum inhibitory concentration
Description: as §1

[17] = test system: Staphylococcus aureus X1.1; assay: MIC, standard agar dilution test; type: cell-based; conditions: read-out: Minimum inhibitory concentration
Description: as §1

[18] = test system: Staphylococcus aureus X400; assay: MIC, standard agar dilution test; type: cell-based; conditions: read-out: Minimum inhibitory concentration
Description: as §1

[19] = test system: Staphylococcus epidermidis EPI1; assay: MIC, standard agar dilution test; type: cell-based; conditions: Staphylococcus epidermidis, EPI1; read-out: Minimum inhibitory concentration
Description: as §1

[20] = test system: Staphylococcus epidermidis EPI2; assay: MIC, standard agar dilution test; type: cell-based; conditions: read-out: Minimum inhibitory concentration
Description: as §1

[21] = test system: Streptococcus group D 9960; assay: MIC, standard agar dilution test; type: cell-based; conditions: D9960, read-out: Minimum inhibitory concentration
Description: as §1

[22] = test system: Streptococcus group D X66; assay: MIC, standard agar dilution test; type: cell-based; conditions: DX66, read-out: Minimum inhibitory concentration
Description: as §1

[23] = test system: Streptococcus pneumoniae Park I; assay: MIC, standard agar dilution test; type: cell-based; conditions: Streptococcus pneumoniae; read-out: Minimum inhibitory concentration
Description: as §1

[24] = test system: Streptococcus pyogenes C203; assay: MIC, standard agar dilution test; type: cell-based; conditions: read-out: Minimum inhibitory concentration
Description: as §1

[25] = test system: Staphylococcus aureus 3055; assay: Subcutaneous therapy of experimental bacterial infection in mice; type: in vivo; conditions: Staphylococcus aureus, 3055, sc, subcutaneous doses at 1 and 5 hours post infection, read-out: Effective dose (ED50)
Method: Table II illustrates the effective dose (ED50, effective dose to protect 50 percent of the test animals) for representative compounds of this invention against an experimental bacterial infection in mice.
The EDso values were determined as described by W. E. Wick et al., Journal of Bacteriology, 81 [No. 2], 233-235 (1961).

| Structure (SMILES) | MIC [1] [µg/mL] | MIC [2] [µg/mL] | MIC [3] [µg/mL] | MIC [4] [µg/mL] | MIC [5] [µg/mL] | MIC [6] [µg/mL] | MIC (Enterobacter cloacae EB5) [µg/mL] | MIC (Escherichia coli EC14) [µg/mL] | MIC (Escherichia coli N10) [µg/mL] | MIC (Escherichia coli TEM) [µg/mL] | MIC (Hemophilus influenzae 76) [µg/mL] | MIC [7] [µg/mL] | MIC [8] [µg/mL] | MIC [9] [µg/mL] | MIC (Proteus inconstans PR33) [µg/mL] | MIC (Proteus morganii PR15) [µg/mL] | MIC (Proteus rettgeri C24) [µg/mL] | MIC (Proteus rettgeri PR7) [µg/mL] | MIC [10] [µg/mL] | MIC [11] [µg/mL] | other results |
| --- | --- | --- | --- | --- | --- | --- | --- | --- | --- | --- | --- | --- | --- | --- | --- | --- | --- | --- | --- | --- | --- |
| CNC1C(OC2OC(CO)C(N)C(O)C2O)OC2CC(NC(=O)CN)C(OC3C(N)CC(N)C(O)C3O)OC2C1O (centres unmarked) [Test compound 3, 2′-N-Glycylapramycin] | 128 (≈ 215 µM) | 64 (≈ 107 µM) | 16 (≈ 26.8 µM) | 16 (≈ 26.8 µM) | 16 (≈ 26.8 µM) | 32 (≈ 53.6 µM) | 32 (≈ 53.6 µM) | 32 (≈ 53.6 µM) | 64 (≈ 107 µM) | 8 (≈ 13.4 µM) | 32 (≈ 53.6 µM) | 16 (≈ 26.8 µM) | 16 (≈ 26.8 µM) | 8 (≈ 13.4 µM) | 32 (≈ 53.6 µM) | 128 (≈ 215 µM) | 16 (≈ 26.8 µM) | 32 (≈ 53.6 µM) | 128 (≈ 215 µM) | 64 (≈ 107 µM) | MIC [12]: 128 µg/mL (≈ 215 µM); MIC [13]: 32 µg/mL (≈ 53.6 µM); MIC [14]: 64 µg/mL (≈ 107 µM); MIC (Serratia marcescens SE3): 32 µg/mL (≈ 53.6 µM); MIC (Serratia marcescens X99): 16 µg/mL (≈ 26.8 µM); MIC (Shigella sonnei N9): 16 µg/mL (≈ 26.8 µM); MIC [15]: 32 µg/mL (≈ 53.6 µM); MIC [16]: 64 µg/mL (≈ 107 µM); MIC [17]: 16 µg/mL (≈ 26.8 µM); MIC [18]: 128 µg/mL (≈ 215 µM); MIC [19]: 16 µg/mL (≈ 26.8 µM); MIC [20]: 8 µg/mL (≈ 13.4 µM); MIC [21]: > 128 µg/mL; MIC [22]: > 128 µg/mL; MIC [23]: 128 µg/mL (≈ 215 µM); MIC [24]: 64 µg/mL (≈ 107 µM); ED50 ([25]; challenged with 1794 LD50's): 30 mg/kg |
| CNC1C(OC2OC(CO)C(N)C(O)C2O)OC2CC(NC(=O)C(O)CCN)C(OC3C(N)CC(N)C(O)C3O)OC2C1O (stereo not drawn) [Test compound 1, 2′-N-(S-γ-Amino-α-hydroxybutyryl)apramycin] | 128 (≈ 200 µM) | 32 (≈ 49.9 µM) | 16 (≈ 25 µM) | 16 (≈ 25 µM) | 16 (≈ 25 µM) | 64 (≈ 99.9 µM) | 32 (≈ 49.9 µM) | 32 (≈ 49.9 µM) | 16 (≈ 25 µM) | 8 (≈ 12.5 µM) | 32 (≈ 49.9 µM) | 64 (≈ 99.9 µM) | 16 (≈ 25 µM) | 8 (≈ 12.5 µM) | 16 (≈ 25 µM) | 128 (≈ 200 µM) | 16 (≈ 25 µM) | 8 (≈ 12.5 µM) | 128 (≈ 200 µM) | 64 (≈ 99.9 µM) | MIC [12]: 128 µg/mL (≈ 200 µM); MIC [13]: 32 µg/mL (≈ 49.9 µM); MIC [14]: 16 µg/mL (≈ 25 µM); MIC (Serratia marcescens SE3): 32 µg/mL (≈ 49.9 µM); MIC (Serratia marcescens X99): 16 µg/mL (≈ 25 µM); MIC (Shigella sonnei N9): 32 µg/mL (≈ 49.9 µM); MIC [15]: 16 µg/mL (≈ 25 µM); MIC [16]: 32 µg/mL (≈ 49.9 µM); MIC [17]: 16 µg/mL (≈ 25 µM); MIC [18]: 64 µg/mL (≈ 99.9 µM); MIC [19]: 16 µg/mL (≈ 25 µM); MIC [20]: 4 µg/mL (≈ 6.24 µM); MIC [21]: > 128 µg/mL; MIC [22]: > 128 µg/mL; MIC [23]: 32 µg/mL (≈ 49.9 µM); MIC [24]: 32 µg/mL (≈ 49.9 µM); ED50 ([25]; challenged with 68.1 LD50's): 6.5 mg/kg |
